“And” between values parts separate entries of the source, which are not always exact repeats. Identical values can stand only once. Like-named read-outs stand apart in the source and are kept apart here.
Tests used:
CYP1A2 = biological target: T1, CYP1A2 (Homo sapiens, UniProt P05177); experiment: Reversible CYP inhibition in human liver microsomes; details: for activity at 0.1 µM / activity at 0.214 µM / activity at 0.979 µM / activity at 2.09 µM / activity at 4.48 µM / activity at 20.5 µM / activity at 43.8 µM / activity at 93.5 µM / activity at 200 µM: pH 7.4, Percent of Control Activity
T1 sequence (P05177 1-516): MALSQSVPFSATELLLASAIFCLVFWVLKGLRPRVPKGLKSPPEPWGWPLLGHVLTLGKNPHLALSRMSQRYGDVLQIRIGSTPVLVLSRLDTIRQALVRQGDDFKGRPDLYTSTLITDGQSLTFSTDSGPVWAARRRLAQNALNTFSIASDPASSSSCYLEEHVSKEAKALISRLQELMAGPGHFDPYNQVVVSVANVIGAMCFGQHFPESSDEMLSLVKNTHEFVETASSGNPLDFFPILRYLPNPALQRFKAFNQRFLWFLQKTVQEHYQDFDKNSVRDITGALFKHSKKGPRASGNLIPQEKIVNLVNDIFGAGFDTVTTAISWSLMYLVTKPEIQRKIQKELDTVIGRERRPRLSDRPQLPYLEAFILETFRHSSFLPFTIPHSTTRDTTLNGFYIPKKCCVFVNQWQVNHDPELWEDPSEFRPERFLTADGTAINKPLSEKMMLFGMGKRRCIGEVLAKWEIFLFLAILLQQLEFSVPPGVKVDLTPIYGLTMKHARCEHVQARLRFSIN

OATP1B3 = biological target: T2, OATP1B3 (Homo sapiens, UniProt Q9NPD5); experiment: Transporter inhibition using transfected HEK293 cells
T2 sequence (Q9NPD5 1-702): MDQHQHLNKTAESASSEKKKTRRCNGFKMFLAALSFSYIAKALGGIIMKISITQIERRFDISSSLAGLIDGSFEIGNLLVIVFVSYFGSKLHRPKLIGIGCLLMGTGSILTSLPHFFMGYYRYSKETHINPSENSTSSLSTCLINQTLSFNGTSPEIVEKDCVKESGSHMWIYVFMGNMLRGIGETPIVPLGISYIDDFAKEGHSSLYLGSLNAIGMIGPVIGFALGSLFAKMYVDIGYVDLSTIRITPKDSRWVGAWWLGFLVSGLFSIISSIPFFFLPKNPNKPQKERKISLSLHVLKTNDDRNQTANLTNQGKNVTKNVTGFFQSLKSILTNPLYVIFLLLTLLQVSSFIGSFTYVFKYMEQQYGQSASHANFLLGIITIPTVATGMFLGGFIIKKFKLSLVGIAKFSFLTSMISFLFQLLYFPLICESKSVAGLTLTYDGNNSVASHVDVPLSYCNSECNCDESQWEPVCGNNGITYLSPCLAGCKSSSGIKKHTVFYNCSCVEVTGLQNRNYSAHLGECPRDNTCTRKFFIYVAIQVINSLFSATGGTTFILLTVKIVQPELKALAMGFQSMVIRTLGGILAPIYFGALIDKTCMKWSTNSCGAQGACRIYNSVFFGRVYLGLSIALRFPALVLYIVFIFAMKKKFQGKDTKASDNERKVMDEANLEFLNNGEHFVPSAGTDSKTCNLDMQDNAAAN

[1] = Monkey pharmacokinetic study; details: Monkey, 1mg/kg intravenous

SMILES: COc1cccc2[nH]c(C(=O)N[C@@H](CC(C)C)C(=O)N[C@@H](C[C@@H]3CCNC3=O)C(=O)CO)cc12 [PF-00835231]
- Percent of Control Activity (CYP1A2; CYP 1A2, 0.1 µM, 30-Minute Preincubation, 0.1 µM): 100.7% and 97.2%
- Percent of Control Activity (CYP1A2; CYP 1A2, 0.1 µM, Zero-Minute Preincubation, 0.1 µM): 91.5%
- Percent of Control Activity (CYP1A2; CYP 1A2, 0.214 µM, 30-Minute Preincubation, 0.214 µM): 101.6% and 102.2%
- Percent of Control Activity (CYP1A2; CYP 1A2, 0.214 µM, Zero-Minute Preincubation, 0.214 µM): 97.3%
- Percent of Control Activity (CYP1A2; CYP 1A2, 0.979 µM, 30-Minute Preincubation, 0.979 µM): 100.1% and 99.5%
- Percent of Control Activity (CYP1A2; CYP 1A2, 0.979 µM, Zero-Minute Preincubation, 0.979 µM): 99.8% and 102.1%
- Percent of Control Activity (CYP1A2; CYP 1A2, 2.09 µM, 30-Minute Preincubation, 2.09 µM): 98.8%
- Percent of Control Activity (CYP1A2; CYP 1A2, 2.09 µM, Zero-Minute Preincubation, 2.09 µM): 90.6% and 85.1%
- Percent of Control Activity (CYP1A2; CYP 1A2, 4.48 µM, 30-Minute Preincubation, 4.48 µM): 99.2% and 99.5%
- Percent of Control Activity (CYP1A2; CYP 1A2, 4.48 µM, Zero-Minute Preincubation, 4.48 µM): 97.7%
- Percent of Control Activity (CYP1A2; CYP 1A2, 20.5 µM, 30-Minute Preincubation, 20.5 µM): 99.6% and 97.2%
- Percent of Control Activity (CYP1A2; CYP 1A2, 20.5 µM, Zero-Minute Preincubation, 20.5 µM): 95.6% and 98.0%
- Percent of Control Activity (CYP1A2; CYP 1A2, 43.8 µM, 30-Minute Preincubation, 43.8 µM): 96.6% and 97.7%
- Percent of Control Activity (CYP1A2; CYP 1A2, 43.8 µM, Zero-Minute Preincubation, 43.8 µM): 92.9% and 93.4%
- Percent of Control Activity (CYP1A2; CYP 1A2, 93.5 µM, 30-Minute Preincubation, 93.5 µM): 90.5% and 95.8%
- Percent of Control Activity (CYP1A2; CYP 1A2, 93.5 µM, Zero-Minute Preincubation, 93.5 µM): 76.6% and 87.4%
- Percent of Control Activity (CYP1A2; CYP 1A2, 200 µM, 30-Minute Preincubation, 200 µM): 92.7% and 91.0%
- Percent of Control Activity (CYP1A2; CYP 1A2, 200 µM, Zero-Minute Preincubation, 200 µM): 81.0% and 74.4%
- IC50 (CYP1A2; human, microsomes, pH 7.4): > 200 µM
- activity at 0.1 µM (CYP1A2; human, microsomes, CYP 1A2, 0.1 µM, 30-Minute Preincubation): 98%
- activity at 0.1 µM (CYP1A2; human, microsomes, CYP 1A2, 0.1 µM, Zero-Minute Preincubation): 97.8%
- activity at 0.214 µM (CYP1A2; human, microsomes, CYP 1A2, 0.214 µM, 30-Minute Preincubation): 96.5%
- activity at 0.214 µM (CYP1A2; human, microsomes, CYP 1A2, 0.214 µM, Zero-Minute Preincubation): 98.4%
- activity at 0.979 µM (CYP1A2; human, microsomes, CYP 1A2, 0.979 µM, 30-Minute Preincubation): 98.9%
- activity at 0.979 µM (CYP1A2; human, microsomes, CYP 1A2, 0.979 µM, Zero-Minute Preincubation): 97.6%
- activity at 2.09 µM (CYP1A2; human, microsomes, CYP 1A2, 2.09 µM, 30-Minute Preincubation): 98.3%
- activity at 2.09 µM (CYP1A2; human, microsomes, CYP 1A2, 2.09 µM, Zero-Minute Preincubation): 97.8%
- activity at 4.48 µM (CYP1A2; human, microsomes, CYP 1A2, 4.48 µM, 30-Minute Preincubation): 97%
- activity at 4.48 µM (CYP1A2; human, microsomes, CYP 1A2, 4.48 µM, Zero-Minute Preincubation): 99.3%
- activity at 20.5 µM (CYP1A2; human, microsomes, CYP 1A2, 20.5 µM, 30-Minute Preincubation): 97.1%
- activity at 20.5 µM (CYP1A2; human, microsomes, CYP 1A2, 20.5 µM, Zero-Minute Preincubation): 99.4%
- activity at 43.8 µM (CYP1A2; human, microsomes, CYP 1A2, 43.8 µM, 30-Minute Preincubation): 95.9%
- activity at 43.8 µM (CYP1A2; human, microsomes, CYP 1A2, 43.8 µM, Zero-Minute Preincubation): 94.2%
- activity at 93.5 µM (CYP1A2; human, microsomes, CYP 1A2, 93.5 µM, 30-Minute Preincubation): 89.6%
- activity at 93.5 µM (CYP1A2; human, microsomes, CYP 1A2, 93.5 µM, Zero-Minute Preincubation): 84.6%
- activity at 200 µM (CYP1A2; human, microsomes, CYP 1A2, 200 µM, 30-Minute Preincubation): 93.6%
- activity at 200 µM (CYP1A2; human, microsomes, CYP 1A2, 200 µM, Zero-Minute Preincubation): 81.3%
- IC50 (OATP1B3): 51.6 µM
- IC50 (OATP1B3; human, HEK293 cells stably transfected with OATP1B3, pH 7.4, probe rosuvastatin (0.5 µM)): > 20 µM
- Total Concn, Mean ([1]; Time 0.083): 1225 ng/mL
- Total Concn ([1]; Time 0.083, individual animals): 1220 ng/mL
- Total Concn ([1]; Time 0.083, individual animals, 1 mg/kg): 1230 ng/mL
- Total Concn, Mean ([1]; Time 0.25): 365 ng/mL
- Total Concn ([1]; Time 0.25, individual animals): 288 ng/mL
- Total Concn ([1]; Time 0.25, individual animals, 1 mg/kg): 442 ng/mL
- Total Concn, Mean ([1]; Time 0.5): 183 ng/mL
- Total Concn ([1]; Time 0.5, individual animals): 154 ng/mL
- Total Concn ([1]; Time 0.5, individual animals, 1 mg/kg): 212 ng/mL
- Total Concn, Mean ([1]; Time 1): 107 ng/mL
- Total Concn ([1]; Time 1, individual animals, 1 mg/kg): 89.9 ng/mL and 124 ng/mL

Reference: paper PMC8523698, “Preclinical characterization of an intravenous coronavirus 3CL protease inhibitor for the potential treatment of COVID19” (Nature Communications, 2021)
